Numbers after ± are expanded uncertainties.
Experiment: xn = mol fraction of the nth substance listed
Details: Liquid; for mass density: Vibrating tube method; for viscosity: Concentric cylinders viscometry

## Cc1ccc(C)c(C)c1 [1,2,4-trimethylbenzene] + CCCCO
273.15 K, 60000 kPa, x2 = 0.1005
  mass density: 917.1 ± 0.7 kg/m3
273.15 K, 60000 kPa, x2 = 0.2261
  mass density: 910.9 ± 0.7 kg/m3
273.15 K, 60000 kPa, x2 = 0.2999
  mass density: 907.2 ± 0.8 kg/m3
273.15 K, 60000 kPa, x2 = 0.3966
  mass density: 901.8 ± 0.8 kg/m3
273.15 K, 60000 kPa, x2 = 0.5289
  mass density: 894.1 ± 0.8 kg/m3
273.15 K, 60000 kPa, x2 = 0.6367
  mass density: 887 ± 0.8 kg/m3
273.15 K, 60000 kPa, x2 = 0.7249
  mass density: 880.8 ± 0.8 kg/m3
273.15 K, 60000 kPa, x2 = 0.7977
  mass density: 875.2 ± 0.8 kg/m3
273.15 K, 60000 kPa, x2 = 0.9131
  mass density: 865.5 ± 0.8 kg/m3
273.15 K, 70000 kPa, x2 = 0
  mass density: 926.2 ± 0.7 kg/m3
273.15 K, 70000 kPa, x2 = 0.1005
  mass density: 921.4 ± 0.8 kg/m3
273.15 K, 70000 kPa, x2 = 0.2261
  mass density: 915.1 ± 0.8 kg/m3
273.15 K, 70000 kPa, x2 = 0.2999
  mass density: 911.4 ± 0.8 kg/m3
273.15 K, 70000 kPa, x2 = 0.3966
  mass density: 906.1 ± 0.8 kg/m3
273.15 K, 70000 kPa, x2 = 0.5289
  mass density: 898.5 ± 0.8 kg/m3
273.15 K, 70000 kPa, x2 = 0.6367
  mass density: 891.4 ± 0.8 kg/m3
273.15 K, 70000 kPa, x2 = 0.7249
  mass density: 885.2 ± 0.8 kg/m3
273.15 K, 70000 kPa, x2 = 0.7977
  mass density: 879.7 ± 0.8 kg/m3
273.15 K, 70000 kPa, x2 = 0.9131
  mass density: 870.1 ± 0.8 kg/m3
273.15 K, 80000 kPa, x2 = 0
  mass density: 930.3 ± 0.8 kg/m3
273.15 K, 80000 kPa, x2 = 0.1005
  mass density: 925.5 ± 0.8 kg/m3
273.15 K, 80000 kPa, x2 = 0.2261
  mass density: 919.3 ± 0.8 kg/m3
273.15 K, 80000 kPa, x2 = 0.2999
  mass density: 915.6 ± 0.8 kg/m3
273.15 K, 80000 kPa, x2 = 0.3966
  mass density: 910.3 ± 0.8 kg/m3
273.15 K, 80000 kPa, x2 = 0.5289
  mass density: 902.7 ± 0.8 kg/m3
273.15 K, 80000 kPa, x2 = 0.6367
  mass density: 895.7 ± 0.8 kg/m3
273.15 K, 80000 kPa, x2 = 0.7249
  mass density: 889.5 ± 0.8 kg/m3
273.15 K, 80000 kPa, x2 = 0.7977
  mass density: 883.9 ± 0.8 kg/m3
273.15 K, 80000 kPa, x2 = 0.9131
  mass density: 874.3 ± 0.8 kg/m3
273.15 K, 90000 kPa, x2 = 0
  mass density: 934.2 ± 0.8 kg/m3
273.15 K, 90000 kPa, x2 = 0.1005
  mass density: 929.4 ± 0.8 kg/m3
273.15 K, 90000 kPa, x2 = 0.2261
  mass density: 923.2 ± 0.8 kg/m3
273.15 K, 90000 kPa, x2 = 0.2999
  mass density: 919.6 ± 0.8 kg/m3
273.15 K, 90000 kPa, x2 = 0.3966
  mass density: 914.3 ± 0.8 kg/m3
273.15 K, 90000 kPa, x2 = 0.5289
  mass density: 906.7 ± 0.8 kg/m3
273.15 K, 90000 kPa, x2 = 0.6367
  mass density: 899.7 ± 0.8 kg/m3
273.15 K, 90000 kPa, x2 = 0.7249
  mass density: 893.6 ± 0.8 kg/m3
273.15 K, 90000 kPa, x2 = 0.7977
  mass density: 888 ± 0.8 kg/m3
273.15 K, 90000 kPa, x2 = 0.9131
  mass density: 878.4 ± 0.8 kg/m3
273.15 K, 100000 kPa, x2 = 0
  mass density: 938 ± 0.8 kg/m3
273.15 K, 100000 kPa, x2 = 0.1005
  mass density: 933.3 ± 0.8 kg/m3
273.15 K, 100000 kPa, x2 = 0.2261
  mass density: 927.1 ± 0.8 kg/m3
273.15 K, 100000 kPa, x2 = 0.2999
  mass density: 923.4 ± 0.8 kg/m3
273.15 K, 100000 kPa, x2 = 0.3966
  mass density: 918.2 ± 0.8 kg/m3
273.15 K, 100000 kPa, x2 = 0.5289
  mass density: 910.6 ± 0.8 kg/m3
273.15 K, 100000 kPa, x2 = 0.6367
  mass density: 903.6 ± 0.8 kg/m3
273.15 K, 100000 kPa, x2 = 0.7249
  mass density: 897.5 ± 0.8 kg/m3
273.15 K, 100000 kPa, x2 = 0.7977
  mass density: 891.9 ± 0.8 kg/m3
273.15 K, 100000 kPa, x2 = 0.9131
  mass density: 882.3 ± 0.9 kg/m3
273.15 K, 120000 kPa, x2 = 0
  mass density: 945.2 ± 0.8 kg/m3
273.15 K, 120000 kPa, x2 = 0.1005
  mass density: 940.6 ± 0.8 kg/m3
273.15 K, 120000 kPa, x2 = 0.2261
  mass density: 934.5 ± 0.8 kg/m3
273.15 K, 120000 kPa, x2 = 0.2999
  mass density: 930.8 ± 0.8 kg/m3
273.15 K, 120000 kPa, x2 = 0.3966
  mass density: 925.6 ± 0.8 kg/m3
273.15 K, 120000 kPa, x2 = 0.5289
  mass density: 918 ± 0.8 kg/m3
273.15 K, 120000 kPa, x2 = 0.6367
  mass density: 911.1 ± 0.8 kg/m3
273.15 K, 120000 kPa, x2 = 0.7249
  mass density: 905 ± 0.8 kg/m3
273.15 K, 120000 kPa, x2 = 0.7977
  mass density: 899.4 ± 0.9 kg/m3
273.15 K, 120000 kPa, x2 = 0.9131
  mass density: 889.9 ± 0.9 kg/m3
273.15 K, 140000 kPa, x2 = 0
  mass density: 952 ± 0.8 kg/m3
273.15 K, 140000 kPa, x2 = 0.1005
  mass density: 947.3 ± 0.8 kg/m3
273.15 K, 140000 kPa, x2 = 0.2261
  mass density: 941.3 ± 0.8 kg/m3
273.15 K, 140000 kPa, x2 = 0.2999
  mass density: 937.7 ± 0.8 kg/m3
273.15 K, 140000 kPa, x2 = 0.3966
  mass density: 932.5 ± 0.8 kg/m3
273.15 K, 140000 kPa, x2 = 0.5289
  mass density: 924.9 ± 0.8 kg/m3
273.15 K, 140000 kPa, x2 = 0.6367
  mass density: 918 ± 0.8 kg/m3
273.15 K, 140000 kPa, x2 = 0.7249
  mass density: 911.9 ± 0.9 kg/m3
273.15 K, 140000 kPa, x2 = 0.7977
  mass density: 906.4 ± 0.9 kg/m3
273.15 K, 140000 kPa, x2 = 0.9131
  mass density: 896.8 ± 0.9 kg/m3
293.15 K, 100 kPa, x2 = 0
  viscosity: 0.888 ± 0.019 mPa·s
  mass density: 875.1 ± 0.7 kg/m3
293.15 K, 100 kPa, x2 = 0.1002
  viscosity: 0.898 ± 0.019 mPa·s
293.15 K, 100 kPa, x2 = 0.2327
  viscosity: 0.949 ± 0.02 mPa·s
293.15 K, 100 kPa, x2 = 0.3
  viscosity: 1.001 ± 0.021 mPa·s
293.15 K, 100 kPa, x2 = 0.3969
  viscosity: 1.087 ± 0.023 mPa·s
293.15 K, 100 kPa, x2 = 0.637
  viscosity: 1.483 ± 0.031 mPa·s
293.15 K, 100 kPa, x2 = 0.7975
  viscosity: 1.975 ± 0.041 mPa·s
293.15 K, 100 kPa, x2 = 0.9131
  viscosity: 2.464 ± 0.051 mPa·s
293.15 K, 100 kPa, x2 = 0.1005
  mass density: 870.2 ± 0.7 kg/m3
293.15 K, 100 kPa, x2 = 0.2261
  mass density: 863.7 ± 0.7 kg/m3

Source: the NIST ThermoML archive (doi:10.1016/j.jct.2017.03.006)
